Laboratory results: patent publication US5840684A, “Glycopeptide antibiotic derivatives” (Eli Lilly and Company, priority 1995, dated 1998)
Values after ≈ are worked out from the molar mass of the structure shown.

Assays:
[1] = system: Staphylococcus aureus S13E; type: cell-based
Experimental: (§1) The MIC's were determined using a standard broth micro-dilution assay.

[2] = system: Staphylococcus aureus SA1199B; type: cell-based
Experimental: as §1

[3] = system: Entercoccus faecium 180-1; experiment: broth micro-dilution MIC; type: cell-based
Experimental: as §1

Entercoccus faecium 276 = experiment: broth micro-dilution MIC; type: cell-based
Experimental: as §1

[4] = system: Staphylococcus aureus 446; experiment: broth micro-dilution MIC; type: cell-based
Experimental: as §1

[5] = system: Staphylococcus aureus 447; experiment: broth micro-dilution MIC; type: cell-based
Experimental: as §1

[6] = system: Staphylococcus aureus 489; experiment: broth micro-dilution MIC; type: cell-based
Experimental: as §1

[7] = system: Staphylococcus aureus 491; experiment: broth micro-dilution MIC; type: cell-based
Experimental: as §1

[8] = system: Staphylococcus aureus SA1199A; experiment: broth micro-dilution MIC; type: cell-based
Experimental: as §1

[9] = system: Staphylococcus aureus SA1199; experiment: broth micro-dilution MIC; type: cell-based
Experimental: as §1

[10] = system: Staphylococcus aureus X400; experiment: broth micro-dilution MIC; type: cell-based
Experimental: as §1

[11] = system: Staphylococcus aureus X778; experiment: broth micro-dilution MIC; type: cell-based
Experimental: as §1

[12] = system: Streptococcus pyogenes C203; experiment: broth micro-dilution MIC; type: cell-based
Experimental: as §1

Entercoccus faecium 180 = experiment: broth micro-dilution MIC; type: cell-based; conditions: Entercoccus faecium 180
Experimental: (§2) The formula I compounds have in vitro and in vivo activity against Gram-positive pathogenic bacteria. The MIC's were determined using a standard broth micro-dilution assay.

Entercoccus faecium 2041 = experiment: broth micro-dilution MIC; type: cell-based; conditions: Entercoccus faecium 2041
Experimental: as §2

[13] = system: Enterococcus gallinarum 245; experiment: broth micro-dilution MIC; type: cell-based; conditions: Enterococcus gallinarum 245
Experimental: as §2

[14] = system: Staphylococcus epidermidis 270; experiment: broth micro-dilution MIC; type: cell-based
Experimental: as §2

[15] = system: Staphylococcus haemolyticus 105; experiment: broth micro-dilution MIC; type: cell-based
Experimental: as §2

[16] = system: Staphylococcus haemolyticus 415; experiment: broth micro-dilution MIC; type: cell-based
Experimental: as §2

[17] = system: Streptococcus pneumoniae P1; experiment: broth micro-dilution MIC; type: cell-based
Experimental: as §2

[18] = system: vancomycin-resistant enterococci; experiment: broth micro-dilution, mean geometric MIC; type: cell-based, Enterococcus faecium and Enterococcus faecalis; conditions: enterococci, 24-hour incubation
[19] = system: vancomycin-susceptible enterococci; experiment: broth micro-dilution, mean geometric MIC; type: cell-based, Enterococcus faecium and Enterococcus faecalis; conditions: enterococci, 24-hour incubation

| Compound | MIC [1] | MIC [2] | MIC [3] | MIC (Entercoccus faecium 276) | MIC [4] | MIC [5] | MIC [6] | MIC [7] | MIC [8] | MIC [9] | MIC [10] | MIC [11] | MIC [12] | MIC (Entercoccus faecium 180) | MIC (Entercoccus faecium 2041) | MIC [13] | MIC [14] | MIC [15] | MIC [16] | MIC [17] | also measured |
| --- | --- | --- | --- | --- | --- | --- | --- | --- | --- | --- | --- | --- | --- | --- | --- | --- | --- | --- | --- | --- | --- |
| CNC(CC(C)C)C(=O)NC1C(=O)NC(CC(N)=O)C(=O)NC2C(=O)NC3C(=O)NC(C(=O)NC(C(=O)O)c4cc(O)cc(O)c4-c4cc3ccc4O)C(OC3CC(C)(N)C(O)C(C)O3)c3ccc(c(Cl)c3)Oc3cc2cc(c3OC2OC(CO)C(O)C(O)C2OC2CC(C)(NCc3ccc(OC)c(OCC4CCCCC4)c3)C(O)C(C)O2)Oc2ccc(cc2Cl)C1O (stereo not drawn) [Compound 142] | 2 µg/mL (≈ 1.1 µM) | 2 µg/mL (≈ 1.1 µM) | ≤ 0.06 µg/mL | 1 µg/mL (≈ 0.548 µM) | 2 µg/mL (≈ 1.1 µM) | 2 µg/mL (≈ 1.1 µM) | 0.5 µg/mL (≈ 0.274 µM) | 0.5 µg/mL (≈ 0.274 µM) | ≤ 0.06 µg/mL | 1 µg/mL (≈ 0.548 µM) | 1 µg/mL (≈ 0.548 µM) | 1 µg/mL (≈ 0.548 µM) | ≤ 0.06 µg/mL | 0.5 µg/mL (≈ 0.274 µM) | ≤ 0.06 µg/mL | 1 µg/mL (≈ 0.548 µM) | 0.25 µg/mL (≈ 0.137 µM) | 1 µg/mL (≈ 0.548 µM) | 1 µg/mL (≈ 0.548 µM) | ≤ 0.06 µg/mL | mean geometric MIC, Vancomycin Resistant Strains [18]: 45 µg/mL; mean geometric MIC, Vancomycin Sensitive Strains [19]: 1.5 µg/mL |
| CNC(CC(C)C)C(=O)NC1C(=O)NC(CC(N)=O)C(=O)NC2C(=O)NC3C(=O)NC(C(=O)NC(C(=O)O)c4cc(O)cc(O)c4-c4cc3ccc4O)C(OC3CC(C)(N)C(O)C(C)O3)c3ccc(c(Cl)c3)Oc3cc2cc(c3OC2OC(CO)C(O)C(O)C2OC2CC(C)(NCc3ccc(OC(=O)c4ccccc4)cc3)C(O)C(C)O2)Oc2ccc(cc2Cl)C1O (stereo not drawn) [Compound 150] | 0.25 µg/mL (≈ 0.139 µM) | 0.5 µg/mL (≈ 0.277 µM) | ≤ 0.06 µg/mL | 1 µg/mL (≈ 0.555 µM) | 1 µg/mL (≈ 0.555 µM) | 0.5 µg/mL (≈ 0.277 µM) | 0.5 µg/mL (≈ 0.277 µM) | ≤ 0.06 µg/mL | ≤ 0.06 µg/mL | 1 µg/mL (≈ 0.555 µM) | ≤ 0.06 µg/mL | 2 µg/mL (≈ 1.11 µM) | ≤ 0.06 µg/mL | 0.25 µg/mL (≈ 0.139 µM) | ≤ 0.06 µg/mL | 2 µg/mL (≈ 1.11 µM) | 0.25 µg/mL (≈ 0.139 µM) | 1 µg/mL (≈ 0.555 µM) | 2 µg/mL (≈ 1.11 µM) | ≤ 0.06 µg/mL | mean geometric MIC, Vancomycin Resistant Strains [18]: 1.7 µg/mL; mean geometric MIC, Vancomycin Sensitive Strains [19]: 0.25 µg/mL |
| CNC(CC(C)C)C(=O)NC1C(=O)NC(CC(N)=O)C(=O)NC2C(=O)NC3C(=O)NC(C(=O)NC(C(=O)O)c4cc(O)cc(O)c4-c4cc3ccc4O)C(OC3CC(C)(N)C(O)C(C)O3)c3ccc(c(Cl)c3)Oc3cc2cc(c3OC2OC(CO)C(O)C(O)C2OC2CC(C)(NCc3cccc(OC4CCCCC4)c3)C(O)C(C)O2)Oc2ccc(cc2Cl)C1O (stereo not drawn) [Compound 153] | 0.125 µg/mL (≈ 0.0702 µM) | 0.25 µg/mL (≈ 0.14 µM) | ≤ 0.06 µg/mL | 0.5 µg/mL (≈ 0.281 µM) | 0.5 µg/mL (≈ 0.281 µM) | 0.5 µg/mL (≈ 0.281 µM) | 1 µg/mL (≈ 0.562 µM) | 0.125 µg/mL (≈ 0.0702 µM) | ≤ 0.06 µg/mL | 0.5 µg/mL (≈ 0.281 µM) | 0.5 µg/mL (≈ 0.281 µM) | 0.5 µg/mL (≈ 0.281 µM) | ≤ 0.06 µg/mL | 0.125 µg/mL (≈ 0.0702 µM) | ≤ 0.06 µg/mL | 1 µg/mL (≈ 0.562 µM) | 0.25 µg/mL (≈ 0.14 µM) | 2 µg/mL (≈ 1.12 µM) | 1 µg/mL (≈ 0.562 µM) | ≤ 0.06 µg/mL | mean geometric MIC, Vancomycin Resistant Strains [18]: 1.4 µg/mL; mean geometric MIC, Vancomycin Sensitive Strains [19]: 0.083 µg/mL |
| CNC(CC(C)C)C(=O)NC1C(=O)NC(CC(N)=O)C(=O)NC2C(=O)NC3C(=O)NC(C(=O)NC(C(=O)O)c4cc(O)cc(O)c4-c4cc3ccc4O)C(OC3CC(C)(N)C(O)C(C)O3)c3ccc(c(Cl)c3)Oc3cc2cc(c3OC2OC(CO)C(O)C(O)C2OC2CC(C)(NCC3CCC(C4CCCCC4)CC3)C(O)C(C)O2)Oc2ccc(cc2Cl)C1O (stereo not drawn) [Compound 164] | 4 µg/mL (≈ 2.26 µM) | 2 µg/mL (≈ 1.13 µM) | ≤ 0.06 µg/mL | 1 µg/mL (≈ 0.565 µM) | 2 µg/mL (≈ 1.13 µM) | 2 µg/mL (≈ 1.13 µM) | 2 µg/mL (≈ 1.13 µM) | 1 µg/mL (≈ 0.565 µM) | 0.5 µg/mL (≈ 0.282 µM) | 2 µg/mL (≈ 1.13 µM) | 0.5 µg/mL (≈ 0.282 µM) | 1 µg/mL (≈ 0.565 µM) | ≤ 0.06 µg/mL | 0.5 µg/mL (≈ 0.282 µM) | 1 µg/mL (≈ 0.565 µM) | 2 µg/mL (≈ 1.13 µM) | 1 µg/mL (≈ 0.565 µM) | 2 µg/mL (≈ 1.13 µM) | 2 µg/mL (≈ 1.13 µM) | ≤ 0.06 µg/mL | mean geometric MIC, Vancomycin Resistant Strains [18]: 1.7 µg/mL; mean geometric MIC, Vancomycin Sensitive Strains [19]: 0.11 µg/mL |
| CNC(CC(C)C)C(=O)NC1C(=O)NC(CC(N)=O)C(=O)NC2C(=O)NC3C(=O)NC(C(=O)NC(C(=O)O)c4cc(O)cc(O)c4-c4cc3ccc4O)C(OC3CC(C)(N)C(O)C(C)O3)c3ccc(c(Cl)c3)Oc3cc2cc(c3OC2OC(CO)C(O)C(O)C2OC2CC(C)(NCc3ccc(OS(=O)(=O)c4c(C)c(C)c(C)c(C)c4C)cc3)C(O)C(C)O2)Oc2ccc(cc2Cl)C1O (stereo not drawn) [Compound 173] | 4 µg/mL (≈ 2.1 µM) | 4 µg/mL (≈ 2.1 µM) | 0.5 µg/mL (≈ 0.262 µM) | 2 µg/mL (≈ 1.05 µM) | 4 µg/mL (≈ 2.1 µM) | 4 µg/mL (≈ 2.1 µM) | 2 µg/mL (≈ 1.05 µM) | 2 µg/mL (≈ 1.05 µM) | 0.5 µg/mL (≈ 0.262 µM) | 2 µg/mL (≈ 1.05 µM) | 4 µg/mL (≈ 2.1 µM) | 4 µg/mL (≈ 2.1 µM) | ≤ 0.06 µg/mL | 0.5 µg/mL (≈ 0.262 µM) | 0.5 µg/mL (≈ 0.262 µM) | 4 µg/mL (≈ 2.1 µM) | 2 µg/mL (≈ 1.05 µM) | 2 µg/mL (≈ 1.05 µM) | 4 µg/mL (≈ 2.1 µM) | ≤ 0.06 µg/mL | mean geometric MIC, Vancomycin Resistant Strains [18]: 2.0 µg/mL; mean geometric MIC, Vancomycin Sensitive Strains [19]: 0.12 µg/mL |
| CNC(CC(C)C)C(=O)NC1C(=O)NC(CC(N)=O)C(=O)NC2C(=O)NC3C(=O)NC(C(=O)NC(C(=O)O)c4cc(O)cc(O)c4-c4cc3ccc4O)C(OC3CC(C)(N)C(O)C(C)O3)c3ccc(c(Cl)c3)Oc3cc2cc(c3OC2OC(CO)C(O)C(O)C2OC2CC(C)(NCc3ccc(S(=O)(=O)N4CCCC4)cc3)C(O)C(C)O2)Oc2ccc(cc2Cl)C1O (stereo not drawn) [Compound 174] | ≤ 0.06 µg/mL | 0.125 µg/mL (≈ 0.0688 µM) | ≤ 0.06 µg/mL | ≤ 0.06 µg/mL | 0.5 µg/mL (≈ 0.275 µM) | 4 µg/mL (≈ 2.2 µM) | ≤ 0.06 µg/mL | 1 µg/mL (≈ 0.551 µM) | ≤ 0.06 µg/mL | ≤ 0.06 µg/mL | ≤ 0.06 µg/mL | ≤ 0.06 µg/mL | ≤ 0.06 µg/mL | 2 µg/mL (≈ 1.1 µM) | ≤ 0.06 µg/mL | 16 µg/mL (≈ 8.81 µM) | 2 µg/mL (≈ 1.1 µM) | 4 µg/mL (≈ 2.2 µM) | 16 µg/mL (≈ 8.81 µM) | ≤ 0.06 µg/mL | mean geometric MIC, Vancomycin Resistant Strains [18]: 19 µg/mL; mean geometric MIC, Vancomycin Sensitive Strains [19]: 0.76 µg/mL |
